Where “and” joins values, the source holds several entries; their conditions need not be identical. Equal values may be shown once.
Key:
PVN OXT neurons = test: Firing of PVN OXT neurons after CNO injection; type: in vivo; details: DREADDs expressed in PVN OXT neurons
Excerpt: (§1) Additionally, selective activation of DREADDs in PVN OXT neurons decreases both mean arterial pressure and HR in telemetry instrumented conscious unrestrained animals. […] In this system one viral vector expresses Cre recombinase under an OXT promotor. The second vector expresses the excitatory hM3Dq DREADDs22. This is a Cre-dependent vector that has silencing double-floxed inverse open reading frames, which insures expression is only in OXT neurons that selectively express Cre. In each animal, 30-50 nl containing both viral vectors was selectively microinjected into the PVN over a 20 minutes period at 1 week of age.

IL-1β = test: Western blot of LV myocardium, IL-1β; type: in vivo, Sprague-Dawley rats; details: CNO 1 mg/kg IP daily
Experimental: (§2) TAC+OXT and OXT NORM animals received intraperitoneal (IP) injections of CNO (1 mg/kg) daily, beginning at 5 weeks of age until the animal was sacrificed.
(§3) Samples of LV myocardium (n=5-6/group) were flash frozen in liquid nitrogen and stored at −80° C. For western blot analysis of protein expression, samples were thawed and homogenized using the Qproteome Mammalian Protein Prep Kit (Qiagen) in tubes containing metallic beads. Samples were then centrifuged at 14,000 g for 20 minutes and protein concentrations were determined by the Pierce BCA Protein Assay (Thermo Scientific). Laemmli buffer (Bio Rad) with 10% 2-mercaptoethanol (Sigma-Aldrich) was added to the samples and samples were heated to 98° C. Equal protein concentration was loaded into wells containing 4-20% Mini-PROTEAN® TGX™ Gels (Bio Rad). The samples were then run at 100V for 1-1.5 hours to separate proteins by electrophoresis.
(§4) After electrophoresis, the samples were transferred to PVDF membranes for 10 min at 25V using the Trans-Blot® Turbo™ Transfer System (Bio Rad). The membranes were blocked with 5% milk for 18 hours. […] Band intensities for collagen III and IL-10 were measured using ImageJ and normalized to the corresponding band intensity for GAPDH.

[1] = molecular target: T1, DREADDs in PVN OXT neurons (Homo sapiens, UniProt P20309, A239G/Y149C)
Experimental: In this system one viral vector expresses Cre recombinase under an OXT promotor. The second vector expresses the excitatory hM3Dq DREADDs22. This is a Cre-dependent vector that has silencing double-floxed inverse open reading frames, which insures expression is only in OXT neurons that selectively express Cre. In each animal, 30-50 nl containing both viral vectors was selectively microinjected into the PVN over a 20 minutes period at 1 week of age.
Sprague-Dawley rats at 4 weeks of age that had DREADDS expression in PVN oxytocin neurons were anesthetized (isoflurane) and implanted with a telemetry device (HDX-11, DSI) with the pressure catheter inserted into the descending abdominal aorta to measure blood pressure (BP). The ECG leads of the device were inserted subcutaneously to measure HR. Rats were allowed to recover from this surgery for a week, followed by IP saline injections for 3 days to acclimate the animals to IP injections. […] One injection of one of the three solutions was administered each day on consecutive days.

[2] = molecular target: T1, DREADDs in PVN OXT neurons; test: Ex vivo cardiac function of excised Langendorff perfused hearts during sinus rhythm; parameters: expressed in transfected cells; host or cells: PVN oxytocin neurons of Sprague-Dawley rats, transduced in vivo with a Cre-dependent (double-floxed inverse ORF) viral vector plus an OXT-promoter Cre vector; species or system Sprague-Dawley rats
Excerpt: (§5) Pressure overload induced LV hypertrophy was initiated in male Sprague-Dawley rats using a minimally invasive trans-ascending aortic constriction (TAC) procedure. Rats at one week of age were aestheticized by hypothermia and underwent TAC surgery. A 0.5 cm incision was made at the level of the chest, the chest was opened and the thymus was retracted to reveal the aorta. A 4-0 silk suture was passed around the ascending aorta, and with a 25-gauge needle temporarily placed adjacent to the aorta, the suture was tied around both the aorta and needle (TAC and TAC+OXT groups). The needle was then removed, leaving the constricting suture around the aorta. Buprenorphine was applied as an analgesic. Successful constriction was confirmed upon examination of the aorta after each animal was sacrificed.
as §1, §2
(§6) At nine weeks of age rats were anesthetized with an IP injection of 0.2 mL Telazol and subject to isoflurane inhalation. Following cessation of pain reflexes, hearts were rapidly excised (n=26) and Langendorff perfused via the aorta at constant pressure (65 mmHg) and temperature (37° C.) with a Krebs-Henseleit solution containing (in mM) 115 NaCl, 3.3 KCl, 2.0 CaCl2, 1.4 MgSO4, 25.0 NaHCO3, 1.0 KH2PO4, 5.0 glucose, and 1.0 lactate. Perfusate was oxygenated with 95% 02-5% CO2. After a stabilization period of 10 minutes, a size 5 balloon (Harvard Apparatus) was inserted into the LV to measure isovolumic LV developed pressure (LVDP). Diastolic pressure was set to 10 mmHg and LVDP was computed as the difference between systolic and diastolic pressures. HR, LVDP, and coronary flow rate (CFR) were measured for at least 15 minutes during sinus rhythm. An isoproterenol (16504, Sigma Aldrich) dose response protocol was then administered using concentrations of 0.01, 0.1, 1, 10, 100, 1000 nM, and HR, LVDP, and CFR were measured at each concentration once function stabilized. After each study, rate pressure product (RPP), an indirect measure of LV work, was calculated as the product of HR and LVDP. Contractility and relaxation were measured as the maximum and minimum values of the first derivative of the LVP waveform, respectively, to assess inotropy and lusitropy.

[3] = molecular target: T1, DREADDs in PVN OXT neurons; test: Anatomic measurements and histology of hearts after chronic activation of PVN OXT neurons; type: in vivo, Sprague-Dawley rats; parameters: expressed in transfected cells; host or cells: PVN oxytocin neurons of Sprague-Dawley rats, transduced in vivo with a Cre-dependent (double-floxed inverse ORF) viral vector plus an OXT-promoter Cre vector
Excerpt: as §5, §1, §2
In a subset of animals, hearts were excised and cannulated via the aorta, flushed of blood, and weighed after clearing fluid from the chambers. The hearts were cut transversely, halfway between the apex and base, and the thickness of the LV free wall and septum were measured. The tissue was then preserved in 10% formalin for histology. Other hearts from each group were cannulated, flushed with high potassium solution, and then formalin-fixed via retrograde perfusion at constant pressure (60 mmHg). The hearts were cut longitudinally and preserved in 10% formalin for histology. All heart specimens were stained (H&E and Trichrome) to quantify cell size and collagen deposition. Average myocyte transverse cross-sectional (CS) area (μm^2) and the amount of fibrosis (μm^2) observed in a histological section were measured using ImageJ for at least three transverse slices from each heart.

[4] = tested on: excised Langendorff perfused hearts; test: Isoproterenol dose response in excised Langendorff perfused hearts (β-adrenergic stimulation); parameters: species or system Sprague-Dawley rats; details: for CFR at the highest isoproterenol concentration / Contractility at the highest isoproterenol concentration / RPP at the highest isoproterenol concentration / Relaxation at the highest isoproterenol concentration: isoproterenol 1000 nM
Experimental: as §6
Measurements in each group were compared using analysis of variance with Tukey post-hoc comparisons (Minitab 17 Statistical Software) to identify significant differences between groups. Myocyte area measurements were analyzed using fully nested ANOVA to account for both number of cells and number of animals. The isoproterenol dose response data was analyzed using a general linear model (GLM) to evaluate the group effect and the isoproterenol dose effect. Tukey post-hoc tests identified pairwise changes between groups at each isoproterenol concentration. Differences were considered significant if p<0.05.

collagen III = test: Western blot of LV myocardium, collagen III; type: in vivo, Sprague-Dawley rats; details: CNO 1 mg/kg IP daily
Experimental: as §2, §3, §4

[5] = tested on: myocardial ischemia-reperfusion; details: intra-cerebroventricular administration, rats with daily restraint stress; cited from earlier work
[6] = acute activation of PVN OXT neurons by CNO, n=4
[7] = awake rats with DREADDs in PVN OXT neurons, CNO 1 mg/kg IP, acute
[8] = hearts of TAC rats given CNO 1 mg/kg IP daily
[9] = hearts of rats without TAC (OXT NORM) given CNO daily
[10] = TAC rats with DREADDs, CNO 1 mg/kg IP daily, 8 weeks post-TAC, listed as TAC + OXT
[11] = TAC rats with DREADDs, CNO 1 mg/kg IP daily, 8 weeks post-TAC, listed as TAC+OXT
[12] = rats without TAC (OXT NORM), CNO 1 mg/kg IP daily
[13] = hearts of TAC rats given CNO daily

T1 sequence (P20309 whole entry Y149C/A239G): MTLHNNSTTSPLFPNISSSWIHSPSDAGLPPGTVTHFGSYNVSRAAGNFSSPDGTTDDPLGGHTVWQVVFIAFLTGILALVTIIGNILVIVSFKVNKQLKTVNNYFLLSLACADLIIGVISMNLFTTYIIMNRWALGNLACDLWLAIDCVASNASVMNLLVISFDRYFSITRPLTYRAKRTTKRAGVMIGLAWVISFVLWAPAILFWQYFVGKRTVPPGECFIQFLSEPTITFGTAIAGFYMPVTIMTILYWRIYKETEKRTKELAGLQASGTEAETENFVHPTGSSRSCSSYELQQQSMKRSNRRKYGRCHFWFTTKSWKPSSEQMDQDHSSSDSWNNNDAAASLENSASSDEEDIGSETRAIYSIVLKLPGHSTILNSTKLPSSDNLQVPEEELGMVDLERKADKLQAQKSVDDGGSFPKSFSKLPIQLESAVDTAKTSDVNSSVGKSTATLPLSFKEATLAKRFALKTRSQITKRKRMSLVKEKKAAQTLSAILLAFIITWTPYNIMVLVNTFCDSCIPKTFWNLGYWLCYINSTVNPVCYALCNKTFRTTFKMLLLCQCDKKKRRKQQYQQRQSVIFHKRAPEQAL

C[N+]1([O-])CCN(C2=Nc3cc(Cl)ccc3Nc3ccccc32)CC1 [CNO, clozapine N-oxide]
Firing of PVN OXT neurons (PVN OXT neurons): increases the firing of PVN OXT neurons for at least one hour | IL-1β expression (band intensity normalized to GAPDH) (IL-1β; TAC rats with DREADDs): 0.50±0.2 change from Control | IL-1β expression (band intensity normalized to GAPDH) (IL-1β; rats without TAC (OXT NORM)): 0.21±0.14 change from Control | Effect on BP (figure legend) [1, 6]: significantly reduced BP | Effect on HR (figure legend) [1, 6]: significantly reduced HR | Average reduction of HR [1, 7]: 56 bpm | Average reduction of blood pressure [1, 7]: 13 mmHg | Blood pressure after CNO ([1]; awake rats with DREADDs, CNO 1 mg/kg IP, before: 105.8±1.9 mmHg): 93.4±1.5 mmHg | HR after CNO ([1]; awake rats with DREADDs, CNO 1 mg/kg IP, before: 475.4±15.9 bpm): 419±12.4 bpm | LV contractility (maximum of first derivative of LVP) [2, 8]: 3,124±383 mmHg/s | LV developed pressure (LVDP) [2, 8]: 126±14 mmHg | LV relaxation (minimum of first derivative of LVP) [2, 8]: −2,203±231 mmHg/s | Rate pressure product (RPP) [2, 8]: 26,874±4,036 mmHg*bpm | Coronary flow rate (CFR) ([2]; hearts of TAC rats given CNO 1 mg/kg IP daily, baseline (no isoproterenol), listed as TAC+OXT): 13.8 ± 2.9 mL/min and 14 ± 2.9 mL/min | Coronary flow rate (CFR) [2, 9]: 16 ± 1.9 mL/min | LV contractility (maximum of first derivative of LVP) [2, 9]: 4,631±931 mmHg/s | LV developed pressure (LVDP) [2, 9]: 127±16 mmHg | LV relaxation (minimum of first derivative of LVP) [2, 9]: −2,926±397 mmHg/s | Rate pressure product (RPP) [2, 9]: 26,978±2,274 mmHg*bpm | Myocyte area (transverse cross-sectional area) ([3]; TAC rats with DREADDs, CNO 1 mg/kg IP daily from 5 weeks of age, 8 weeks post-TAC, listed as TAC + OXT): 584 ± 51^+ μm^2 | Myocyte area (transverse cross-sectional area) ([3]; TAC rats with DREADDs, CNO 1 mg/kg IP daily from 5 weeks of age, 8 weeks post-TAC, listed as TAC+OXT): 601±23 μm^2 | Body weight ([3]; TAC rats with DREADDs, CNO 1 mg/kg IP daily, 8 weeks post-TAC): 298 ± 17^ g | Fibrosis [3, 10]: 2407 ± 723^+ μm^2 | Heart weight [3, 10]: 1.75 ± 0.21 g | LV wall thickness (LV free wall) [3, 10]: 5.53 ± 0.34 mm | Septum thickness [3, 10]: 3.99 ± 0.14 mm | Fibrosis [3, 11]: 2407±723 μm^2 | Heart weight [3, 11]: 1.74 ± 0.2 g | LV wall thickness (LV free wall) [3, 11]: 5.22±0.3 mm | Septum thickness [3, 11]: 3.9±0.2 mm | Myocyte area (transverse cross-sectional area) ([3]; rats without TAC (OXT NORM) with DREADDs, CNO 1 mg/kg IP daily): 368±20 μm^2 and 365 ± 90 μm^2 | Body weight [3, 12]: 357 ± 24 g | Fibrosis [3, 12]: 918±112 μm^2 | Heart weight [3, 12]: 2.19 ± 0.2 g and 2.19 ± 0.17 g | LV wall thickness (LV free wall) [3, 12]: 3.69±0.1 mm and 3.69 ± 0.10 mm | Septum thickness [3, 12]: 3.18±0.1 mm and 3.18 ± 0.12 mm | HR response to increasing isoproterenol concentration ([4]; hearts of TAC rats given CNO daily, compared with Control and TAC hearts): greatest increase in HR | CFR at the highest isoproterenol concentration [4, 13]: 15 ± 1.9 mL/min | Contractility at the highest isoproterenol concentration [4, 13]: 3,936±589 mmHg/s | RPP at the highest isoproterenol concentration [4, 13]: 38,017±4,303 mmHg*bpm | Relaxation at the highest isoproterenol concentration [4, 13]: −3,258±495 mmHg/s | Collagen III expression (band intensity normalized to GAPDH) (collagen III; TAC rats with DREADDs): 1.95±0.7 times Control | Collagen III expression (band intensity normalized to GAPDH) (collagen III; rats without TAC (OXT NORM)): 1.31±0.5 change from Control

CC(C)NCC(O)c1ccc(O)c(O)c1 (stereo not shown) [isoproterenol]
Contractility at the highest isoproterenol concentration ([4]; Control hearts): 7,164±788 mmHg/s | RPP at the highest isoproterenol concentration ([4]; Control hearts): 52,741±14,328 mmHg*bpm | Relaxation at the highest isoproterenol concentration ([4]; Control hearts): −5,402±484 mmHg/s | CFR at the highest isoproterenol concentration ([4]; Control hearts, baseline 13.3±2.4 mL/min): 25.3 ± 3.7 mL/min | CFR, average for all isoproterenol concentrations ([4]; untreated TAC hearts): 8.4 ± 0.8 mL/min | Maximum contractility rate in the isoproterenol protocol ([4]; untreated TAC hearts): 2,322±364 mmHg/s | Minimum relaxation rate in the isoproterenol protocol ([4]; untreated TAC hearts): −2,023±361 mmHg/s | RPP at the highest isoproterenol concentration ([4]; untreated TAC hearts): 21,787±3998 mmHg*bpm

CC[C@H](C)[C@@H]1NC(=O)[C@H](Cc2ccc(O)cc2)NC(=O)[C@@H](N)CSSC[C@@H](C(=O)N2CCC[C@H]2C(=O)N[C@@H](CC(C)C)C(=O)NCC(N)=O)NC(=O)[C@H](CC(N)=O)NC(=O)[C@H](CCC(N)=O)NC1=O [oxytocin]
Cardiac injury following ischemia reperfusion [5]: reduced the cardiac injury

Source: patent US20220008500A1, “COMPOSITIONS AND METHODS FOR TREATING HEART FAILURE” (The George Washington University, priority 2017, published 2022)
